Experimental data published in publication PMC11252453 (Acta Pharmaceutica Sinica. B, 2024).

Legend:
SARS-CoV-2 PLpro = SARS-CoV-2 PLpro (Severe acute respiratory syndrome coronavirus 2, UniProt P0DTD1); experiment: cell-based
[1] = system: SARS-CoV-2 PLpro mediated IFNB expression; type: cell-based
Vero E6 cells = details: African green monkey

CCC(C(=O)Nc1cc(NC2CCNCC2)ccc1C)n1cc(Br)cc2nc(SCc3ccc(F)cc3)nc1-2 (stereo not shown) [Compound 44] showed an EC50 (SARS-CoV-2 PLpro) of 3.81 ± 0.59 µM.

With CCC(C(=O)Nc1cc(NC2COC2)ccc1C)n1cc(Br)cc2nc(SCc3ccc(F)cc3)nc1-2 (stereo not shown) [Compound 45] the “IFNB mRNA expression” value [1] was “fully restore IFNB expression”.

With CCC(C(=O)Nc1cc(NC2CCNCC2)ccc1C)n1cc(Cl)cc2nc(SCc3ccc(F)cc3)nc1-2 (stereo not shown) [Compound 39] the “IFNB mRNA expression” value [1] was “fully restore IFNB expression” and the CC50 (Vero E6 cells) was > 50 µM.
